Converted amounts (≈) assume the structure as drawn. Like-named read-outs stand apart in the source and are kept apart here.
How the values were obtained:
C. neoformans H99 = experiment: Broth microdilution antimicrobial assay (MIC/MMC); assay type: cell-based, Cryptococcus neoformans; settings: for MIC: 37 °C; for MIC / MFC: 48 h
Method: (§1) The microorganisms used in this study include four bacterial (Staphylococcus aureus ATCC25923, methicillin sensitive S. aureus MSSA1, methicillin resistant S. aureus MRSA3 and methicillin resistant S. aureus MRSA4) and three yeast strains (Candida albicans ATCC10231, Candida tropicalis PK233 and Cryptococcus neoformans H99). These microorganisms were taken from our laboratory collection. The fungal and bacterial strains were grown at 37 °C and maintained on Sabouraud Dextrose Agar (SDA, Conda, Madrid, Spain) and nutrient agar (NA, Conda) slants respectively.
(§2) The inocula of bacteria and yeasts were prepared from overnight cultures as previously described. Absorbance was read spectrophotometrically at 530 nm and 600 nm for yeasts and bacteria respectively. The final concentrations of microbial suspensions were 2.5 × 10^5 cells/mL for yeasts and 10^6 CFU/mL for bacteria.
(§3) The antimicrobial activity was evaluated by determining the minimum inhibitory concentrations (MICs). MICs of extracts and compounds were determined by broth micro dilution. Each test sample was dissolved in 10% v/v aqueous dimethylsulfoxide (DMSO) to give a stock solution. This was serially diluted two-fold in Mueller-Hinton Broth (MHB) for bacteria and Sabouraud Dextrose Broth (SDB) for fungi to obtain a concentration range of 4096 to 0.25 μg/mL. Then, 100 μL of each sample concentration was added to respective wells (96-well micro plate) containing 90 μL of SDB/ MHB and 10 μL of inoculum to give final concentration ranges of 2048 to 4 μg/mL (for extracts) and 256 to 0.125 μg/mL (for compounds). Dilutions of nystatin (Sigma-Aldrich, Steinheim, Germany) and ciprofloxacin (Sigma-Aldrich, Steinheim, Germany) were used as positive controls for yeasts and bacteria respectively. Broth with 10 μL of DMSO was used as negative control. The cultured micro plates were covered; then, the contents of each well were mixed thoroughly using a plate shaker (Flow Laboratory, Germany) and incubated at 37 °C for 24 h (bacteria) and 48 h (yeasts) under shaking. After the incubation period, MICs were assessed visually and were taken as the lowest sample concentration at which there was no growth or virtually no growth. The lowest concentration that yielded no growth after the sub-culturing was considered as the minimum microbicidal concentrations (MMCs). All the tests were performed in triplicate.

C. tropicalis PK233 = experiment: Broth microdilution antimicrobial assay (MIC/MMC); assay type: cell-based, Candida tropicalis; settings: for MIC: 37 °C; for MIC / MFC: 48 h
Method: as §1, §2, §3

C. albicans ATCC10231 = experiment: Broth microdilution antimicrobial assay (MIC/MMC); assay type: cell-based, Candida albicans; settings: for MIC: 37 °C, 48 h; for MMC: no growth after sub-culturing
Method: as §1, §2, §3

S. aureus MRSA4 = experiment: Broth microdilution antimicrobial assay (MIC/MMC); assay type: cell-based, Staphylococcus aureus; settings: for MMC/MIC / MBC / MIC: S. aureus MRSA4; for MBC / MIC: Staphylococcus aureus, 24 h; for MBC: no growth after sub-culturing; for MIC: 37 °C
Method: as §1, §2, §3

S. aureus MRSA3 = experiment: Broth microdilution antimicrobial assay (MIC/MMC); assay type: cell-based, Staphylococcus aureus; settings: for MMC/MIC / MBC / MIC: S. aureus MRSA3; for MBC / MIC: Staphylococcus aureus, 24 h; for MBC: no growth after sub-culturing; for MIC: 37 °C
Method: as §1, §2, §3

S. aureus ATCC25923 = experiment: Broth microdilution antimicrobial assay (MIC/MMC); assay type: cell-based, Staphylococcus aureus; settings: for MIC / MBC: Staphylococcus aureus, 24 h; for MIC: 37 °C; for MBC: no growth after sub-culturing
Method: as §1, §2, §3

S. aureus MSSA1 = experiment: Broth microdilution antimicrobial assay (MIC/MMC); assay type: cell-based, Staphylococcus aureus; settings: for MIC / MBC: Staphylococcus aureus, 24 h; for MIC: 37 °C; for MBC: no growth after sub-culturing
Method: as §1, §2, §3

[1] = DPPH free radical scavenging assay; settings: Fig. 3; vitamin C standard
Method: The free radical scavenging activity of extracts and compounds was evaluated according to described methods. The EC50 (μg/ml), which is the amount of sample necessary to inhibit by 50% the absorbance of free radical DPPH was calculated. Vitamin C was used as a standard control. All the analyses were carried out in triplicate.

[2] = Ferric reducing antioxidant power (FRAP) assay; settings: Perl's Prussian blue at 700 nm; Fig. 2; BHT positive control
Method: The FRAP was determined by the Fe^3+-Fe^2+ transformation in the presence of extracts and compounds as previously described. The Fe^2+ was monitored by measuring the formation of Perl’s Prussian blue at 700 nm. Butylated hydroxytoluene (BHT) was used as a positive control. All the tests were performed in triplicate.

[3] = tested on: bacterial and fungal strains; experiment: Broth microdilution MIC, range over all tested strains; assay type: cell-based
Method: as §1, §2, §3

S. aureus strains = experiment: Broth microdilution MIC, range over the S. aureus strains; assay type: cell-based; settings: Staphylococcus aureus; range over the four S. aureus strains
Method: as §1, §2
The antimicrobial activity was evaluated by determining the minimum inhibitory concentrations (MICs). MICs of extracts and compounds were determined by broth micro dilution. Each test sample was dissolved in 10% v/v aqueous dimethylsulfoxide (DMSO) to give a stock solution. […] After the incubation period, MICs were assessed visually and were taken as the lowest sample concentration at which there was no growth or virtually no growth. […]

[4] = Cryptococcus neoformans, read-out: MIC
[5] = Cryptococcus neoformans, no growth after sub-culturing
[6] = Candida tropicalis, read-out: MIC
[7] = Candida tropicalis, no growth after sub-culturing
[8] = range over all bacterial and fungal strains, read-out: MIC
[9] = Candida albicans, read-out: MIC

MMC/MIC (C. neoformans H99) | MMC/MIC (C. tropicalis PK233) | MMC/MIC (S. aureus MRSA4) | MIC (S. aureus MRSA4) | MMC/MIC (S. aureus MRSA3) | MIC (S. aureus MRSA3) | MMC/MIC (S. aureus ATCC25923) | MIC (S. aureus ATCC25923) | MMC/MIC (S. aureus MSSA1) | MIC (S. aureus MSSA1) | MIC (C. neoformans H99; [4]) | MIC (C. tropicalis PK233; [6]) | Compound | MMC/MIC (C. albicans ATCC10231) | MMC (C. albicans ATCC10231) | MBC (S. aureus MRSA4) | MBC (S. aureus MRSA3) | MBC (S. aureus ATCC25923) | MBC (S. aureus MSSA1) | MFC (C. neoformans H99; [5]) | MFC (C. tropicalis PK233; [7]) | other results
1 | 1 | 2 | 128 µg/mL (≈ 349 µM) | 2 | 64 µg/mL (≈ 175 µM) | 2 | 32 µg/mL (≈ 87.4 µM) | 1 | 32 µg/mL (≈ 87.4 µM) | 32 µg/mL (≈ 87.4 µM) | 16 µg/mL (≈ 43.7 µM) | COC(=O)c1cc(O)c(O)c(O)c1-c1c(C(=O)OC)cc(O)c(O)c1O [Compound 8, dimethyl 4,4′,5,5′,6,6′-hexahydroxybiphenyl-2,2′-dicarboxylate] | – | > 256 µg/mL | 256 µg/mL (≈ 699 µM) | 128 µg/mL (≈ 349 µM) | 64 µg/mL (≈ 175 µM) | 32 µg/mL (≈ 87.4 µM) | 32 µg/mL (≈ 87.4 µM) | 16 µg/mL (≈ 43.7 µM) | DPPH radical-scavenging activity (in words) [1]: lowest EC50; reducing power (FRAP, in words) [2]: highest reducing power; MIC [3, 8]: 8 to 128 µg/mL (≈ 21.8 to 349 µM); MIC (C. albicans ATCC10231; [9]): 128 µg/mL (≈ 349 µM)
1 | 2 | 2 | 32 µg/mL (≈ 96.9 µM) | 2 | 16 µg/mL (≈ 48.4 µM) | 1 | 32 µg/mL (≈ 96.9 µM) | 1 | 16 µg/mL (≈ 48.4 µM) | 32 µg/mL (≈ 96.9 µM) | 32 µg/mL (≈ 96.9 µM) | COc1cc2c(=O)oc3c(OC)c(O)cc4c(=O)oc(c1O)c2c34 [Compound 7, 3,4′-di-O-methylellagic acid] | 2 | 64 µg/mL | 64 µg/mL (≈ 194 µM) | 32 µg/mL (≈ 96.9 µM) | 32 µg/mL (≈ 96.9 µM) | 16 µg/mL (≈ 48.4 µM) | 32 µg/mL (≈ 96.9 µM) | 64 µg/mL (≈ 194 µM) | activity against methicillin-resistant S. aureus (in words) (S. aureus MRSA4; MRSA4): prominent activity; activity against methicillin-resistant S. aureus (in words) (S. aureus MRSA3; MRSA3): prominent activity; DPPH radical-scavenging activity (in words) [1]: highest EC50; reducing power (FRAP, in words) [2]: lowest reducing power; MIC [3, 8]: 16 to 32 µg/mL (≈ 48.4 to 96.9 µM); MIC (C. albicans ATCC10231; [9]): 32 µg/mL (≈ 96.9 µM); MIC (S. aureus strains): 16 to 32 µg/mL (≈ 48.4 to 96.9 µM)
2 | 1 | 1 | 128 µg/mL (≈ 215 µM) | 2 | 64 µg/mL (≈ 108 µM) | 2 | 32 µg/mL (≈ 53.8 µM) | 1 | 64 µg/mL (≈ 108 µM) | 64 µg/mL (≈ 108 µM) | 64 µg/mL (≈ 108 µM) | O=C(C=Cc1ccc(O)cc1)OCC1OC(Oc2c(-c3ccc(O)cc3)oc3cc(O)cc(O)c3c2=O)C(O)C(O)C1O (stereo not drawn) [Compound 6, trans-tiliroside] | 1 | 64 µg/mL | 128 µg/mL (≈ 215 µM) | 128 µg/mL (≈ 215 µM) | 64 µg/mL (≈ 108 µM) | 64 µg/mL (≈ 108 µM) | 128 µg/mL (≈ 215 µM) | 64 µg/mL (≈ 108 µM) | MIC [3, 8]: 32 to 128 µg/mL (≈ 53.8 to 215 µM); MIC (C. albicans ATCC10231; [9]): 64 µg/mL (≈ 108 µM)

Compound | MMC/MIC (C. neoformans H99) | MMC/MIC (C. tropicalis PK233) | MMC/MIC (S. aureus MRSA4) | MIC (S. aureus MRSA4) | MMC/MIC (S. aureus MRSA3) | MIC (S. aureus MRSA3) | MMC/MIC (S. aureus ATCC25923) | MIC (S. aureus ATCC25923) | MMC/MIC (S. aureus MSSA1) | MIC (S. aureus MSSA1) | MIC (C. neoformans H99; [4]) | MIC (C. tropicalis PK233; [6]) | MMC/MIC (C. albicans ATCC10231) | MMC (C. albicans ATCC10231) | MBC (S. aureus MRSA4) | MBC (S. aureus MRSA3) | MBC (S. aureus ATCC25923) | MBC (S. aureus MSSA1) | MFC (C. neoformans H99; [5]) | MFC (C. tropicalis PK233; [7]) | other results
C[C@@H]1[C@H](O)[C@@H](C)/C=C/C=C/CC/C=C/C=C/C=C/C=C/C(O[C@H]2O[C@H](C)[C@@H](O)[C@H](N)[C@@H]2O)CC2O[C@](O)(CC(O)C(O)CCC(O)CC(O)CC(O)CC(=O)O[C@H]1C)CC(O)C2C(=O)O (stereo partly shown) [nystatin, reference compound] | 1 | 2 | – | – | – | – | – | – | – | – | – | – | 1 | 2 µg/mL | – | – | – | – | – | – | MIC (C. neoformans H99): 1 µg/mL (≈ 1.08 µM); MMC (C. neoformans H99; no growth after sub-culturing): 1 µg/mL; MIC (C. tropicalis PK233): 0.5 µg/mL (≈ 0.54 µM); MMC (C. tropicalis PK233; no growth after sub-culturing): 1 µg/mL; MIC (C. albicans ATCC10231): 2 µg/mL (≈ 2.16 µM)
O=c1cc(-c2ccc(O)cc2)oc2c([C@@H]3O[C@H](CO)[C@@H](O)[C@H](O)[C@H]3O)c(O)cc(O)c12 [Compound 5, vitexin] | 1 | 2 | 2 | 128 µg/mL (≈ 296 µM) | 2 | 64 µg/mL (≈ 148 µM) | 2 | 64 µg/mL (≈ 148 µM) | 2 | 64 µg/mL (≈ 148 µM) | 128 µg/mL (≈ 296 µM) | 64 µg/mL (≈ 148 µM) | 2 | 256 µg/mL | 256 µg/mL (≈ 592 µM) | 128 µg/mL (≈ 296 µM) | 128 µg/mL (≈ 296 µM) | 128 µg/mL (≈ 296 µM) | 128 µg/mL (≈ 296 µM) | 128 µg/mL (≈ 296 µM) | MIC [3]: 64 to 128 µg/mL (≈ 148 to 296 µM); MIC (C. albicans ATCC10231; [9]): 128 µg/mL (≈ 296 µM)

— PMC5956543, “Antimicrobial and antioxidant activities of triterpenoid and phenolic derivatives from two Cameroonian Melastomataceae plants: Dissotis senegambiensis and Amphiblemma monticola” (BMC Complementary and Alternative Medicine, 2018)
